Source: ChEMBL document CHEMBL1201862, “PubChem BioAssay data set” (2004)
“And” between values parts separate entries of the source, which are not always exact repeats. Identical values can stand only once.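 All cell lines were grown in 96-well plates and treated with compound for 48 hours. Abbreviation: GI50, concentration required for 50% inhibition of growth.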 The source made the active and inactive calls. Cut-off read from the data, not from the text of the source: active = GI50 up to about 1.1 µM and inactive = higher.

Columns and labels:
Experiment in all cases: NCI tumour cell line growth inhibition, 48 h
[1] = tested on: SW-620
[2] = tested on: LOX IMVI
[3] = tested on: CCRF-CEM
[4] = tested on: NCI-H23
[5] = tested on: MDA-MB-231
[6] = tested on: NCI-H522
[7] = tested on: 786-0
[8] = tested on: SN12C
[9] = tested on: RPMI-8226
[10] = tested on: HCT-15
[11] = tested on: Hs-578T
[12] = tested on: NCI-H226
[13] = tested on: HT-29
[14] = tested on: OVCAR-5
[15] = tested on: NCI/ADR-RES
[16] = tested on: HL-60
[17] = tested on: HCT-116
[18] = tested on: MDA-N
[19] = tested on: CAKI-1
[20] = tested on: OVCAR-4
[21] = tested on: MCF7
[22] = tested on: SK-MEL-5
[23] = tested on: SK-MEL-2
[24] = tested on: OVCAR-8
[25] = tested on: MOLT-4
[26] = tested on: K562
[27] = tested on: NCI-H460
[28] = tested on: M14
[29] = tested on: U-251
[30] = tested on: HOP-92
[31] = tested on: TK-10
[32] = tested on: PC-3
[33] = tested on: UO-31
[34] = tested on: ACHN
[35] = tested on: SR
[36] = tested on: A549
[37] = tested on: RXF 393
[38] = tested on: KM12
[39] = tested on: SF-295
[40] = tested on: HCC 2998
[41] = tested on: Malme-3M
[42] = tested on: T47D
[43] = tested on: UACC-257
[44] = tested on: OVCAR-3
[45] = tested on: SF-268
[46] = tested on: MDA-MB-435
[47] = tested on: SF-539
[48] = tested on: BT-549
[49] = tested on: COLO 205
[50] = tested on: A498
[51] = tested on: UACC-62
[52] = tested on: SK-OV-3
[53] = tested on: DU-145
[54] = tested on: IGROV-1
[55] = tested on: SNB-19
[56] = tested on: EKVX
[57] = tested on: SNB-75
[58] = tested on: SK-MEL-28
[59] = tested on: HOP-62

Compound: CC(=O)O[C@H]1CC2C(C3CC[C@H](C(C)CCC(N)=O)[C@]31C)[C@H](OC(C)=O)C[C@@H]1CC3(CC[C@]21C)OOC1(CCC(C)CC1)OO3 (stereo not given in full)
- GI50 [1]: 3.02 µM (inactive) and 2.11 µM (inactive)
- GI50 [2]: 1.83 µM (inactive) and 1.92 µM (inactive)
- GI50 [3]: 1.52 µM (inactive)
- GI50 [4]: 1.74 µM (inactive) and 2.23 µM (inactive)
- GI50 [5]: 2.21 µM (inactive)
- GI50 [6]: 1.4 µM (inactive) and 1.71 µM (inactive)
- GI50 [7]: 1.86 µM (inactive) and 1.77 µM (inactive)
- GI50 [8]: 1.67 µM (inactive) and 2.27 µM (inactive)
- GI50 [9]: 1.61 µM (inactive) and 1.5 µM (inactive)
- GI50 [10]: 1.93 µM
- GI50 [11]: 2.07 µM (inactive) and 2.38 µM (inactive)
- GI50 [12]: 1.47 µM (inactive) and 2.09 µM (inactive)
- GI50 [13]: 2.51 µM (inactive) and 1.54 µM (inactive)
- GI50 [14]: 2.09 µM (inactive) and 2.04 µM (inactive)
- GI50 [15]: 2.55 µM (inactive) and 1.65 µM (inactive)
- GI50 [16]: 2.32 µM (inactive) and 2.93 µM (inactive)
- GI50 [17]: 1.94 µM (inactive) and 2.26 µM (inactive)
- GI50 [18]: 1.87 µM (inactive) and 2.07 µM (inactive)
- GI50 [19]: 2.29 µM (inactive) and 1.71 µM (inactive)
- GI50 [20]: 1.32 µM (inactive) and 1.48 µM (inactive)
- GI50 [21]: 2.04 µM (inactive) and 2.65 µM (inactive)
- GI50 [22]: 1.74 µM (inactive) and 2.96 µM (inactive)
- GI50 [23]: 1.91 µM (inactive)
- GI50 [24]: 1.71 µM (inactive) and 1.47 µM (inactive)
- GI50 [25]: 1.72 µM (inactive) and 1.47 µM (inactive)
- GI50 [26]: 2.48 µM (inactive) and 3.99 µM (inactive)
- GI50 [27]: 1.62 µM (inactive) and 2.28 µM (inactive)
- GI50 [28]: 2.22 µM (inactive) and 2.94 µM (inactive)
- GI50 [29]: 1.66 µM (inactive)
- GI50 [30]: 2.79 µM (inactive) and 1.65 µM (inactive)
- GI50 [31]: 1.95 µM (inactive) and 2.72 µM (inactive)
- GI50 [32]: 2.69 µM (inactive)
- GI50 [33]: 1.56 µM (inactive)
- GI50 [34]: 1.8 µM (inactive)
- GI50 [35]: 867 nM (active) and 1.47 µM (inactive)
- GI50 [36]: 1.24 µM (inactive) and 1.79 µM (inactive)
- GI50 [37]: 1.95 µM (inactive) and 2.69 µM (inactive)
- GI50 [38]: 1.98 µM (inactive) and 1.83 µM (inactive)
- GI50 [39]: 2.99 µM (inactive) and 2 µM (inactive)
- GI50 [40]: 2.06 µM (inactive) and 2.38 µM (inactive)
- GI50 [41]: 2.12 µM (inactive) and 2.53 µM (inactive)
- GI50 [42]: 1.49 µM (inactive) and 2.01 µM (inactive)
- GI50 [43]: 5.37 µM (inactive) and 4.6 µM (inactive)
- GI50 [44]: 2.07 µM (inactive) and 1.79 µM (inactive)
- GI50 [45]: 1.62 µM (inactive) and 1.83 µM (inactive)
- GI50 [46]: 2.06 µM (inactive) and 1.61 µM (inactive)
- GI50 [47]: 1.9 µM (inactive) and 2.7 µM (inactive)
- GI50 [48]: 2.11 µM (inactive) and 1.72 µM (inactive)
- GI50 [49]: 1.56 µM (inactive)
- GI50 [50]: 11.7 µM (inactive) and 14.3 µM (inactive)

Compound: CSc1c(C(N)=S)c(N)nn1-c1ccccc1
- GI50 [1]: > 100 µM (inactive)
- GI50 [51]: > 100 µM (inactive)
- GI50 [2]: > 100 µM (inactive)
- GI50 [4]: > 100 µM (inactive)
- GI50 [5]: > 100 µM (inactive)
- GI50 [6]: > 100 µM (inactive)
- GI50 [7]: > 100 µM (inactive)
- GI50 [8]: > 100 µM (inactive)
- GI50 [9]: > 100 µM (inactive)
- GI50 [10]: > 100 µM
- GI50 [11]: > 100 µM (inactive)
- GI50 [12]: > 100 µM (inactive)
- GI50 [13]: > 100 µM (inactive)
- GI50 [14]: > 100 µM (inactive)
- GI50 [15]: > 100 µM (inactive)
- GI50 [16]: > 100 µM (inactive)
- GI50 [17]: > 100 µM (inactive)
- GI50 [19]: > 100 µM (inactive)
- GI50 [20]: > 100 µM (inactive)
- GI50 [21]: > 100 µM (inactive)
- GI50 [22]: > 100 µM (inactive)
- GI50 [23]: > 100 µM (inactive)
- GI50 [24]: > 100 µM (inactive)
- GI50 [25]: > 100 µM (inactive)
- GI50 [26]: > 100 µM (inactive)
- GI50 [52]: > 100 µM (inactive)
- GI50 [27]: > 100 µM (inactive)
- GI50 [53]: > 100 µM (inactive)
- GI50 [28]: > 100 µM (inactive)
- GI50 [29]: > 100 µM (inactive)
- GI50 [30]: > 100 µM (inactive)
- GI50 [54]: > 100 µM (inactive)
- GI50 [31]: > 100 µM (inactive)
- GI50 [32]: > 100 µM (inactive)
- GI50 [33]: > 100 µM (inactive)
- GI50 [35]: > 100 µM (inactive)
- GI50 [36]: > 100 µM (inactive)
- GI50 [37]: > 100 µM (inactive)
- GI50 [38]: > 100 µM (inactive)
- GI50 [40]: > 100 µM (inactive)
- GI50 [55]: > 100 µM (inactive)
- GI50 [56]: > 100 µM (inactive)
- GI50 [57]: > 100 µM (inactive)
- GI50 [41]: > 100 µM (inactive)
- GI50 [42]: > 100 µM (inactive)
- GI50 [43]: > 100 µM (inactive)
- GI50 [44]: > 100 µM (inactive)
- GI50 [45]: > 100 µM (inactive)
- GI50 [46]: > 100 µM (inactive)
- GI50 [47]: > 100 µM (inactive)
- GI50 [48]: > 100 µM (inactive)
- GI50 [49]: > 100 µM (inactive)
- GI50 [58]: > 100 µM (inactive)
- GI50 [50]: > 100 µM (inactive)

Compound: Cc1nc2c(=O)[nH]c3ccc(Cl)cc3c2o1
- GI50 [1]: > 100 µM (inactive)
- GI50 [51]: > 100 µM (inactive)
- GI50 [2]: > 100 µM (inactive)
- GI50 [3]: > 100 µM (inactive)
- GI50 [4]: > 100 µM (inactive)
- GI50 [5]: > 100 µM (inactive)
- GI50 [6]: > 100 µM (inactive)
- GI50 [7]: > 100 µM (inactive)
- GI50 [8]: > 100 µM (inactive)
- GI50 [9]: > 100 µM (inactive)
- GI50 [10]: > 100 µM
- GI50 [11]: > 100 µM (inactive)
- GI50 [12]: > 100 µM (inactive)
- GI50 [13]: > 100 µM (inactive)
- GI50 [14]: > 100 µM (inactive)
- GI50 [15]: > 100 µM (inactive)
- GI50 [17]: > 100 µM (inactive)
- GI50 [18]: > 100 µM (inactive)
- GI50 [19]: > 100 µM (inactive)
- GI50 [20]: > 100 µM (inactive)
- GI50 [21]: > 100 µM (inactive)
- GI50 [22]: > 100 µM (inactive)
- GI50 [23]: > 100 µM (inactive)
- GI50 [24]: > 100 µM (inactive)
- GI50 [25]: > 100 µM (inactive)
- GI50 [26]: > 100 µM (inactive)
- GI50 [52]: > 100 µM (inactive)
- GI50 [27]: > 100 µM (inactive)
- GI50 [28]: > 100 µM (inactive)
- GI50 [29]: > 100 µM (inactive)
- GI50 [30]: > 100 µM (inactive)
- GI50 [54]: 89.7 µM (inactive)
- GI50 [31]: > 100 µM (inactive)
- GI50 [32]: > 100 µM (inactive)
- GI50 [33]: > 100 µM (inactive)
- GI50 [34]: > 100 µM (inactive)
- GI50 [35]: > 100 µM (inactive)
- GI50 [36]: > 100 µM (inactive)
- GI50 [37]: > 100 µM (inactive)
- GI50 [38]: > 100 µM (inactive)
- GI50 [39]: > 100 µM (inactive)
- GI50 [40]: > 100 µM (inactive)
- GI50 [55]: > 100 µM (inactive)
- GI50 [56]: 69.7 µM (inactive)
- GI50 [57]: > 100 µM (inactive)
- GI50 [41]: > 100 µM (inactive)
- GI50 [59]: > 100 µM (inactive)
- GI50 [42]: > 100 µM (inactive)
- GI50 [43]: > 100 µM (inactive)
- GI50 [44]: > 100 µM (inactive)
- GI50 [45]: > 100 µM (inactive)
- GI50 [46]: > 100 µM (inactive)
- GI50 [47]: > 100 µM (inactive)
- GI50 [48]: > 100 µM (inactive)
- GI50 [49]: > 100 µM (inactive)
- GI50 [50]: > 100 µM (inactive)
